Laboratory results: patent publication US11365187B2, “Pesticidally active pyrazole derivatives” (SYNGENTA PARTICIPATIONS AG, priority 2017, dated 2022)
Where two headings read alike, the source gives them in different places.

What was measured:
Type in all cases: in vivo
[1] = test system: Euschistus heros (Neotropical Brown Stink Bug); test: Euschistus heros feeding/contact activity on soybean leaves; conditions: 120 h
Experimental: Euschistus heros (Neotropical Brown Stink Bug): Feeding/contact activity
Soybean leaves on agar in 24-well microtiter plates were sprayed with aqueous test solutions prepared from 10′000 ppm DMSO stock solutions. After drying the leaves were infested with N2 nymphs. The samples were assessed for mortality 5 days after infestation.

[2] = test system: Myzus persicae (Green peach aphid); test: Myzus persicae feeding/contact activity on sunflower leaf discs; conditions: foliar, 144 h
Experimental: Myzus persicae (Green peach aphid): Feeding/Contact activity
Sunflower leaf discs were placed onto agar in a 24-well microtiter plate and sprayed with aqueous test solutions prepared from 10′000 ppm DMSO stock solutions. After drying, the leaf discs were infested with an aphid population of mixed ages. The samples were assessed for mortality 6 days after infestation.

[3] = test system: Tetranychus urticae (Two-spotted spider mite); test: Tetranychus urticae feeding/contact activity on bean leaf discs; conditions: foliar, 192 h, read-out: mortality on mixed population (mobile stages)
Experimental: Tetranychus urticae (Two-spotted spider mite): Feeding/contact activity
Bean leaf discs on agar in 24-well microtiter plates were sprayed with aqueous test solutions prepared from 10′000 ppm DMSO stock solutions. After drying the leaf discs were infested with a mite population of mixed ages. The samples were assessed for mortality on mixed population (mobile stages) 8 days after infestation.

[4] = test system: Plutella xylostella (Diamond back moth); test: Plutella xylostella feeding/contact activity on artificial diet; conditions: 120 h
Experimental: Plutella xylostella (Diamond back moth): Feeding/contact activity
24-well microtiter plates with artificial diet were treated with aqueous test solutions prepared from 10′000 ppm DMSO stock solutions by pipetting. After drying, the plates were infested with L2 larvae (10 to 15 per well). The samples were assessed for mortality 5 days after infestation.

[5] = test system: Thrips tabaci (Onion thrips); test: Thrips tabaci feeding/contact activity on sunflower leaf discs; conditions: foliar, 144 h
Experimental: Thrips tabaci (Onion thrips): Feeding/Contact activity
Sunflower leaf discs were placed on agar in 24-well microtiter plates and sprayed with aqueous test solutions prepared from 10′000 ppm DMSO stock solutions. After drying the leaf discs were infested with a thrips population of mixed ages. The samples were assessed for mortality 6 days after infestation.

[6] = test system: Diabrotica balteata (Corn root worm); test: Diabrotica balteata (Corn root worm) mortality on sprayed maize sprouts; conditions: 96 h
Experimental: Diabrotica balteata (Corn root worm):
Maize sprouts placed onto an agar layer in 24-well microtiter plates were treated with aqueous test solutions prepared from 10′000 ppm DMSO stock solutions by spraying. After drying, the plates were infested with L2 larvae (6 to 10 per well). The samples were assessed for mortality 4 days after infestation.

[7] = test system: Spodoptera littoralis (Egyptian cotton leaf worm); test: Spodoptera littoralis feeding/contact activity on cotton leaf discs; conditions: foliar, 72 h
Experimental: Spodoptera littoralis (Egyptian cotton leaf worm): Feeding/contact activity
Cotton leaf discs were placed onto agar in 24-well microtiter plates and sprayed with aqueous test solutions prepared from 10′000 ppm DMSO stock solutions. After drying the leaf discs were infested with five L1 larvae. The samples were assessed for mortality 3 days after infestation. […] 2, 3, 4, 5, 6, 7, 8, 9, 10, 11, 12, 13, 14, 15, 16, 17, 18, 19, 20, 21, 22, 23, 24, 25, 26, 27, 28 and 29.

[8] = application rate 200 ppm, N2 nymphs, assessed 5 days after infestation, read-out: mortality
[9] = application rate 200 ppm, aphid population of mixed ages, assessed 6 days after infestation, read-out: mortality
[10] = application rate 200 ppm, mite population of mixed ages, assessed 8 days after infestation
[11] = application rate 200 ppm, L2 larvae, assessed 5 days after infestation, read-out: mortality
[12] = application rate 200 ppm, thrips population of mixed ages, assessed 6 days after infestation, read-out: mortality
[13] = application rate 200 ppm, L2 larvae, assessed 4 days after infestation, read-out: mortality
[14] = application rate 200 ppm, L1 larvae, assessed 3 days after infestation, read-out: mortality

Measured: mortality at 200 ppm

Cn1nc(C(F)(C(F)(F)F)C(F)(F)F)c(OC(F)F)c1-n1cc(-c2ccc(Cl)c(C(=O)NC3(C#N)CC3)c2)cn1 [Example 1, 2-Chloro-N-(1-cyanocyclopropyl)-5-[1-[4-(difluoromethoxy)-2-methyl-5-[1,2,2,2-tetrafluoro-1-(trifluoromethyl)ethyl]pyrazol-3-yl]pyrazol-4-yl]benzamide]
≥ 80%: [1]; [8] | [2]; [9] | [3]; [10] | [4]; [11] | [5]; [12] | [6]; [13] | [7]; [14]

COC(=O)N(C(=O)c1cc(-c2cnn(-c3c(OC(F)F)c(C(F)(C(F)(F)F)C(F)(F)F)nn3C)c2)ccc1Cl)C1(C#N)CC1 [Example 18, methyl N-[2-chloro-5-[1-[4-(difluoromethoxy)-2-methyl-5-[1,2,2,2-tetrafluoro-1-(trifluoromethyl)ethyl]pyrazol-3-yl]pyrazol-4-yl]benzoyl]-N-(1-cyanocyclopropyl)carbamate]
≥ 80%: [1] | [2] | [3] | [4] | [5] | [6] | [7]

CN(C(=O)c1cc(-c2cnn(-c3c(OC(F)F)c(C(F)(C(F)(F)F)C(F)(F)F)nn3C)c2)ccc1Cl)C1(C#N)CC1 [Example 4, 2-chloro-N-(1-cyanocyclopropyl)-5-[1-[4-(difluoromethoxy)-2-methyl-5-[1,2,2,2-tetrafluoro-1-(trifluoromethyl)ethyl]pyrazol-3-yl]pyrazol-4-yl]-N-methyl-benzamide]
≥ 80%: [1]; [8] | [2]; [9] | [3]; [10] | [4]; [11] | [5]; [12] | [6]; [13] | [7]; [14]

Cn1nc(C(F)(C(F)(F)F)C(F)(F)F)c(OC(F)F)c1-n1cc(-c2ccc(Cl)c(C(=O)N(C(=O)OCCl)C3(C#N)CC3)c2)cn1 [Example 29, chloromethyl N-[2-chloro-5-[1-[4-(difluoromethoxy)-2-methyl-5-[1,2,2,2-tetrafluoro-1-(trifluoromethyl)ethyl]pyrazol-3-yl]pyrazol-4-yl]benzoyl]-N-(1-cyanocyclopropyl)carbamate]
≥ 80%: [1] | [2] | [3] | [4] | [7]

Cn1nc(C(F)(C(F)(F)F)C(F)(F)F)c(OC(F)F)c1-n1cc(-c2ccc(Cl)c(C(=O)N(CC#N)C3(C#N)CC3)c2)cn1 [Example 11, 2-chloro-N-(1-cyanocyclopropyl)-N-(cyanomethyl)-5-[1-[4-(difluoromethoxy)-2-methyl-5-[1,2,2,2-tetrafluoro-1-(trifluoromethyl)ethyl]pyrazol-3-yl]pyrazol-4-yl]benzamide]
≥ 80%: [1]; [8] | [2]; [9] | [3]; [10] | [4]; [11] | [7]; [14]

Cn1nc(C(F)(C(F)(F)F)C(F)(F)F)c(OC(F)F)c1-n1cc(-c2ccc(Cl)c(C(=O)N(CC#N)C3CC3)c2)cn1 [Example 16, 2-chloro-N-(cyanomethyl)-N-cyclopropyl-5-[1-[4-(difluoromethoxy)-2-methyl-5-[1,2,2,2-tetrafluoro-1-(trifluoromethyl)ethyl]pyrazol-3-yl]pyrazol-4-yl]benzamide]
≥ 80%: [1]; [8] | [2]; [9] | [3]; [10] | [4]; [11] | [7]; [14]

COCCCN(C(=O)c1cc(-c2cnn(-c3c(OC(F)F)c(C(F)(C(F)(F)F)C(F)(F)F)nn3C)c2)ccc1Cl)C1(C#N)CC1 [Example 6, 2-chloro-N-(1-cyanocyclopropyl)-5-[1-[4-(difluoromethoxy)-2-methyl-5-[1,2,2,2-tetrafluoro-1-(trifluoromethyl)ethyl]pyrazol-3-yl]pyrazol-4-yl]-N-(3-methoxypropyl)benzamide]
≥ 80%: [1]; [8] | [2]; [9] | [3]; [10] | [4]; [11] | [7]; [14]

COCN(C(=O)c1cc(-c2cnn(-c3c(OC(F)F)c(C(F)(C(F)(F)F)C(F)(F)F)nn3C)c2)ccc1Cl)C1CC1 [Example 28, 2-chloro-N-cyclopropyl-5-[1-[4-(difluoromethoxy)-2-methyl-5-[1,2,2,2-tetrafluoro-1-(trifluoromethyl)ethyl]pyrazol-3-yl]pyrazol-4-yl]-N-(methoxymethyl)benzamide]
≥ 80%: [1]; [8] | [2]; [9] | [3]; [10] | [4]; [11] | [7]; [14]

CCOC(=O)N(C(=O)c1cc(-c2cnn(-c3c(OC(F)F)c(C(F)(C(F)(F)F)C(F)(F)F)nn3C)c2)ccc1Cl)C1CC1 [Example 15, ethyl N-[2-chloro-5-[1-[4-(difluoromethoxy)-2-methyl-5-[1,2,2,2-tetrafluoro-1-(trifluoromethyl)ethyl]pyrazol-3-yl]pyrazol-4-yl]benzoyl]-N-cyclopropyl-carbamate]
≥ 80%: [1] | [2] | [3] | [4] | [7]

CC(C)OCN(C(=O)c1cc(-c2cnn(-c3c(OC(F)F)c(C(F)(C(F)(F)F)C(F)(F)F)nn3C)c2)ccc1Cl)C1(C#N)CC1 [Example 2, 2-chloro-N-(1-cyanocyclopropyl)-5-[1-[4-(difluoromethoxy)-2-methyl-5-[1,2,2,2-tetrafluoro-1-(trifluoromethyl)ethyl]pyrazol-3-yl]pyrazol-4-yl]-N-(isopropoxymethyl)benzamide]
≥ 80%: [1]; [8] | [2]; [9] | [3]; [10] | [4]; [11] | [7]; [14]

CCOC(=O)N(C(=O)c1cc(-c2cnn(-c3c(OC(F)F)c(C(F)(C(F)(F)F)C(F)(F)F)nn3C)c2)ccc1Cl)C1(C#N)CC1 [Example 8, ethyl N-[2-chloro-5-[1-[4-(difluoromethoxy)-2-methyl-5-[1,2,2,2-tetrafluoro-1-(trifluoromethyl)ethyl]pyrazol-3-yl]pyrazol-4-yl]benzoyl]-N-(1-cyanocyclopropyl)carbamate]
≥ 80%: [1] | [2] | [3] | [4] | [7]

COCCN(C(=O)c1cc(-c2cnn(-c3c(OC(F)F)c(C(F)(C(F)(F)F)C(F)(F)F)nn3C)c2)ccc1Cl)C1(C#N)CC1 [Example 7, 2-chloro-N-(1-cyanocyclopropyl)-5-[1-[4-(difluoromethoxy)-2-methyl-5-[1,2,2,2-tetrafluoro-1-(trifluoromethyl)ethyl]pyrazol-3-yl]pyrazol-4-yl]-N-(2-methoxyethyl)benzamide]
≥ 80%: [1]; [8] | [2]; [9] | [3]; [10] | [4]; [11] | [7]; [14]
